Data from ChEMBL document CHEMBL4811299, “Discovery of a novel class of heteroaryl-pyrrolidinones as positive allosteric modulators of the muscarinic acetylcholine receptor M1” (Bioorg Med Chem Lett, 2021).

Key:
[1] = biological target: T1, Muscarinic acetylcholine receptor M1 (Homo sapiens) (UniProt P11229); experiment: Positive allosteric modulation of human muscarinic acetylcholine M1 receptor expressed in CHO cells in presence of acetylcholine at EC20 concentration by calcium mobilization assay relative to acetylcholine; type: functional, cell-based; conditions: time 3.5 min
T1 sequence (whole entry): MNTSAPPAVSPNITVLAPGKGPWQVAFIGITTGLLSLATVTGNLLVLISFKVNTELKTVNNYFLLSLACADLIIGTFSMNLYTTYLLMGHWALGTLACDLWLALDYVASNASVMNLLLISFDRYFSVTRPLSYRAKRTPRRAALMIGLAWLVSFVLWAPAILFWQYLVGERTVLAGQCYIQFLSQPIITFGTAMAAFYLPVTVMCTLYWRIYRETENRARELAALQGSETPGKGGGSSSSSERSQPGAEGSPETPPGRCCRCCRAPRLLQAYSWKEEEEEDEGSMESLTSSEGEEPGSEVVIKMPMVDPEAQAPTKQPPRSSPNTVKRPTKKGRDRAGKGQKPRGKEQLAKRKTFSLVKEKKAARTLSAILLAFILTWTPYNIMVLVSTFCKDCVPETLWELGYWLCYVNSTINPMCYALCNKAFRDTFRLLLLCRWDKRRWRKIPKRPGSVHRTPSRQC

[2] = biological target: T2, Muscarinic acetylcholine receptor M1 (Homo sapiens, UniProt P11229); experiment: Positive allosteric modulation of human muscarinic acetylcholine M1 receptor expressed in CHO cells in presence of acetylcholine at EC20 concentration by calcium mobilization assay; type: functional, cell-based
T2 sequence (P11229 whole entry): T1 sequence (whole entry)

[3] = biological target: T3, Muscarinic acetylcholine receptor M2 (Homo sapiens, UniProt P08172); experiment: Positive allosteric modulation of human muscarinic acetylcholine M2/Gqi5 receptor expressed in CHO cells in presence of acetylcholine at EC20 concentration by calcium mobilization assay; type: functional, cell-based
T3 sequence (P08172 whole entry): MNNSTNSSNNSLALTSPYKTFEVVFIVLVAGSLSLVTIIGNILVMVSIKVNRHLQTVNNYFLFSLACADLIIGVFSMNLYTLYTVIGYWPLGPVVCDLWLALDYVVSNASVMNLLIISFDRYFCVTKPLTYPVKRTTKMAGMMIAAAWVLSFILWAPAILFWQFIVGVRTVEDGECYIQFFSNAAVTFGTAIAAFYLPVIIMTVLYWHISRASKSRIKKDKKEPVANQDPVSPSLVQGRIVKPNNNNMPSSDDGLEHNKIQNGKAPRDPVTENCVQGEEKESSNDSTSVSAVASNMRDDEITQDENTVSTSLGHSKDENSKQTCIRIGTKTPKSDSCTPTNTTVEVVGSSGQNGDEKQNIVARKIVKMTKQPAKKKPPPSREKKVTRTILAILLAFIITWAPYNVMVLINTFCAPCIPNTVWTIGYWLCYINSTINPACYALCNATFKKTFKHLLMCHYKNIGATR

[4] = biological target: Muscarinic acetylcholine receptor M3 (Homo sapiens, UniProt P20309); experiment: Positive allosteric modulation of human muscarinic acetylcholine M3 receptor expressed in CHO cells in presence of acetylcholine at EC20 concentration by calcium mobilization assay; type: functional, cell-based
[5] = biological target: T4, Muscarinic acetylcholine receptor M5 (Homo sapiens, UniProt P08912); experiment: Positive allosteric modulation of human muscarinic acetylcholine M5 receptor expressed in CHO cells in presence of acetylcholine at EC20 concentration by calcium mobilization assay; type: functional, cell-based
T4 sequence (P08912 whole entry): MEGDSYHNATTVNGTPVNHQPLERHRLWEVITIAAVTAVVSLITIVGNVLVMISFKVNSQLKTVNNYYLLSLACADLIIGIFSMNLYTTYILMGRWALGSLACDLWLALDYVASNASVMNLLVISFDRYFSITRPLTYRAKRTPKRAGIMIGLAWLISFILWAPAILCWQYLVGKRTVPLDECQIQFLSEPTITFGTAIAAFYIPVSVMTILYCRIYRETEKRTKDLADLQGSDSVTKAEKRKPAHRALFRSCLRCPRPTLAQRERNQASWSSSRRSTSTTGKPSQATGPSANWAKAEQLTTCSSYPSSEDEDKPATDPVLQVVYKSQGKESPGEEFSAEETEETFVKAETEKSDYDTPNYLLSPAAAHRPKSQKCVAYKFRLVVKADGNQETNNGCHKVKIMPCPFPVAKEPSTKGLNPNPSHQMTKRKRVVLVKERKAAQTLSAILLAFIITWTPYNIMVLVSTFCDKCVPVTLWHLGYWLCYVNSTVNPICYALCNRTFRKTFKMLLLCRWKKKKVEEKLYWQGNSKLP

[6] = Brain to plasma partition coefficient, Kp of the compound in rat at 0.20 mg/kg, iv administered as cassette dose measured at 0.25 hrs; type: ADME, organism-based; conditions: 0.2 mg/kg
[7] = Unbound brain-to-plasma concentration ratio of the compound in rat at 0.20 mg/kg, iv administered as cassette dose measured at 0.25 hrs; type: ADME, organism-based; conditions: 0.2 mg/kg
[8] = Protein binding in rat plasma assessed as unbound fraction measured after 4 hrs by equilibrium dialysis assay; type: ADME, cell-free
[9] = Protein binding in rat brain assessed as unbound fraction measured after 4 hrs by equilibrium dialysis assay; type: ADME, tissue-based
[10] = Protein binding in human plasma assessed as unbound fraction measured after 4 hrs by equilibrium dialysis assay; type: ADME, cell-free
[11] = filed as positive allosteric modulator

Sequence of Muscarinic acetylcholine receptor M3 (P20309 whole entry): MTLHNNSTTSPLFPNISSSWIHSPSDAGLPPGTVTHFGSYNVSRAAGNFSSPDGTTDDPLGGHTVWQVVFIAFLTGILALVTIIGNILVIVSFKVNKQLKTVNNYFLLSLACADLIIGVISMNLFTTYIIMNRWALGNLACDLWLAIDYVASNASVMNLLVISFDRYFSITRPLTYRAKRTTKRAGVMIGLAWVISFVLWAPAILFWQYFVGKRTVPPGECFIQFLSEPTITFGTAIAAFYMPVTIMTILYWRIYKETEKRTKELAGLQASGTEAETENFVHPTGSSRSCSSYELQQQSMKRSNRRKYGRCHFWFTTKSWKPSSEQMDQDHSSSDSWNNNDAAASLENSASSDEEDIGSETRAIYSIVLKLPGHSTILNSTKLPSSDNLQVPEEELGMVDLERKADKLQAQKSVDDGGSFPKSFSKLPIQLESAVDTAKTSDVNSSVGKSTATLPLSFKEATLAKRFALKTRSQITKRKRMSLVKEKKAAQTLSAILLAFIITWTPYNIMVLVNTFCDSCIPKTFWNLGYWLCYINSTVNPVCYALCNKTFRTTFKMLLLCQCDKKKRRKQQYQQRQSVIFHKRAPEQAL

| SMILES | Emax [1, 11] | EC50 [2] | also measured |
| --- | --- | --- | --- |
| Cn1cc2cc(-c3cc(F)c(CN4Cc5sccc5C4=O)c(F)c3)ccc2n1 | 59% | – | – |
| Cn1cc2cc(-c3cc(F)c(CN4Cc5occc5C4=O)c(F)c3)ccc2n1 | 45% | – | – |
| Cn1cc2cc(-c3ccc(CN4Cc5ncsc5C4=O)c(F)c3)ccc2n1 | 60% | 2 µM | EC50 [3]: > 10 µM; EC50 [4]: > 10 µM; EC50 [5]: > 10 µM; Kp [6]: 2.1; K(p,uu,brain) [7]: 2.2; Fu [8]: 0.04; Fu [9]: 0.042; Fu [10]: 0.05 |
| O=C1c2scnc2CN1Cc1c(F)cc(-c2ccc3ncccc3c2)cc1F | – | 8 µM | Emax [1]: 30% |
| Cn1cc2c(-c3cc(F)c(CN4Cc5ccn(CC6CCCO6)c5C4=O)c(F)c3)cccc2n1 (configuration not stated) | 58% | – | – |
| Cn1cc2c(-c3ccc(CN4Cc5sccc5C4=O)c(F)c3)cccc2n1 | 67% | – | – |
| Cn1cc(-c2ccc(CN3Cc4ccsc4C3=O)c(F)c2)cn1 | 67% | – | – |
| Cc1cc(-c2cc(F)c(CN3Cc4cnn(CC5CCCO5)c4C3=O)c(F)c2)ccn1 (configuration not stated) | 65% | – | – |
| Cn1cc2cc(-c3cc(F)c(CN4Cc5cnn(CC6CCCO6)c5C4=O)c(F)c3)ccc2n1 (configuration not stated) | 79% | 1.66 µM | – |
| Cn1cc2cc(-c3cc(F)c(CN4Cc5ccsc5C4=O)c(F)c3)ccc2n1 | 40% | – | – |
| Cc1nn(C)cc1-c1cc(F)c(CN2Cc3cnn(CC4CCCO4)c3C2=O)c(F)c1 (configuration not stated) | 77% | – | – |
| Cn1cc2c(-c3cc(F)c(CN4Cc5cn(CCN6CCCC6)nc5C4=O)c(F)c3)cccc2n1 | 57% | – | – |
| Cn1cnc2ccc(-c3cc(F)c(CN4Cc5sccc5C4=O)c(F)c3)cc21 | 60% | – | – |
| Cn1cc2c(-c3cc(F)c(CN4Cc5cn(CC6CCCO6)nc5C4=O)c(F)c3)cccc2n1 (configuration not stated) | 61% | 3.54 µM | – |
| Cn1cc2cc(-c3ccc(CN4Cc5sccc5C4=O)c(F)c3)ccc2n1 | 51% | – | – |
| Cn1cc2cccc(-c3cc(F)c(CN4Cc5cnn(CC6CCCO6)c5C4=O)c(F)c3)c2n1 (configuration not stated) | 66% | – | – |
| Cn1cc2c(-c3cc(F)c(CN4Cc5ccn(CCN6CCCC6)c5C4=O)c(F)c3)cccc2n1 | 56% | – | – |

The next lines start with results.

| Emax [1, 11] | EC50 [2] | SMILES | also measured |
| --- | --- | --- | --- |
| 84% | 1.51 µM | Cn1cc2c(-c3cc(F)c(CN4Cc5cnn(CCO)c5C4=O)c(F)c3)cccc2n1 | – |
| 75% | 1.92 µM | Cn1cc2c(-c3cc(F)c(CN4Cc5sccc5C4=O)c(F)c3)cccc2n1 | – |
| 85% | 1.12 µM | Cn1cc2c(-c3cc(F)c(CN4Cc5cnn(CC6CCCO6)c5C4=O)c(F)c3)cccc2n1 (configuration not stated) | EC50 [3]: > 10 µM; EC50 [4]: > 10 µM; EC50 [5]: > 10 µM; Fu [8]: 0.027; Fu [9]: 0.019; Fu [10]: 0.025 |
| – | > 10 µM | Cn1cc2c(-c3cc(F)c(CN4Cc5ocnc5C4=O)c(F)c3)cccc2n1 | – |
| – | > 10 µM | Cn1cc2c(-c3cc(F)c(CN4Cc5ncoc5C4=O)c(F)c3)cccc2n1 | – |
| – | > 10 µM | Cn1cc2c(-c3cc(F)c(CN4Cc5nc[nH]c5C4=O)c(F)c3)cccc2n1 | – |
| 84% | 3.93 µM | COCCn1ncc2c1C(=O)N(Cc1c(F)cc(-c3cccc4nn(C)cc34)cc1F)C2 | – |
| 87% | 0.739 µM | Cn1cc2c(-c3cc(F)c(CN4Cc5cnn(CCN6CCCC6)c5C4=O)c(F)c3)cccc2n1 | – |
| 67% | – | Cn1cc2c(-c3cc(F)c(CN4Cc5ccn(CCCO)c5C4=O)c(F)c3)cccc2n1 | – |
| 66% | 2.16 µM | Cn1cc2c(-c3cc(F)c(CN4Cc5ccsc5C4=O)c(F)c3)cccc2n1 | – |
| – | > 10 µM | Cc1[nH]cc2c1C(=O)N(Cc1c(F)cc(-c3cccc4nn(C)cc34)cc1F)C2 | – |
